# Literature values, collected in US10986851B2, “Control of pathogenic bacteria in foods” (priority 2018, dated 2021).
# Experiments:
# Salmonella [1] = settings: postchill decontamination tank, ground poultry parts; 0.07 and 0.1% PAA evaluated
# Salmonella [2] = settings: suspension in 0.1% peptone water
# Salmonella [3] = settings: ground chicken containing 9.8% fat, refrigerated storage, 200 ppm
SMILES,reduction of Salmonella (Salmonella [1]),inhibitory effect against Salmonella (Salmonella [2]),effect on growth of Salmonella (Salmonella [3])
"CC(=O)OO [PAA, peracetic acid]",effective for the reduction of Salmonella,–,–
"CCCCCCCCCCCC(=O)N[C@@H](CCCN=C(N)N)C(=O)OCC [LAE, lauric arginate]",–,strong inhibitory (P<0.05) effect,no inhibitory (P>0.05) effect
